# Measured values: patent publication US8710001B2, “PEGylated, extended insulins” (Novo Nordisk A/S, priority 2006, dated 2014)
# Molecular target: human insulin receptor, A-isoform (without exon 11) (Homo sapiens, UniProt P06213)
# Test: Insulin receptor binding, SPA (Scintillation Proximity Assay) microtiterplate antibody capture assay
# Conditions: affinity relative to human insulin; purified recombinant human insulin receptor; A14Tyr[125I]-human insulin tracer; 16 hours incubation
# Method: The affinity of the insulin derivatives of this invention for the human insulin receptor is determined by a SPA assay (Scintillation Proximity Assay) microtiterplate antibody capture assay. SPA-PVT antibody-binding beads, anti-mouse reagent (Amersham Biosciences, Cat No. PRNQ0017) are mixed with 25 ml of binding buffer (100 mM HEPES pH 7.8; 100 mM sodium chloride, 10 mM MgSO4, 0.025% Tween-20). Reagent mix for a single Packard Optiplate (Packard No. 6005190) is composed of 2.4 μl of a 1:5000 diluted purified recombinant human insulin receptor (either with or without exon 11), an amount of a stock solution of A14Tyr[^125I]-human insulin corresponding to 5000 cpm per 100 μl of reagent mix, 12 μl of a 1:1000 dilution of F12 antibody, 3 ml of SPA-beads and binding buffer to a total of 12 ml. A total of 100 μl reagent mix is then added to each well in the Packard Optiplate and a dilution series of the insulin derivative is made in the Optiplate from appropriate samples. The samples are then incubated for 16 hours while gently shaken. The phases are the then separated by centrifugation for 1 min and the plates counted in a Topcounter. The binding data were fitted using the nonlinear regression algorithm in the GraphPad Prism 2.01 (GraphPad Software, San Diego, Calif.).
# Chain of human insulin receptor, A-isoform (without exon 11) (P06213 28-746 isoform P06213-2 limits assumed): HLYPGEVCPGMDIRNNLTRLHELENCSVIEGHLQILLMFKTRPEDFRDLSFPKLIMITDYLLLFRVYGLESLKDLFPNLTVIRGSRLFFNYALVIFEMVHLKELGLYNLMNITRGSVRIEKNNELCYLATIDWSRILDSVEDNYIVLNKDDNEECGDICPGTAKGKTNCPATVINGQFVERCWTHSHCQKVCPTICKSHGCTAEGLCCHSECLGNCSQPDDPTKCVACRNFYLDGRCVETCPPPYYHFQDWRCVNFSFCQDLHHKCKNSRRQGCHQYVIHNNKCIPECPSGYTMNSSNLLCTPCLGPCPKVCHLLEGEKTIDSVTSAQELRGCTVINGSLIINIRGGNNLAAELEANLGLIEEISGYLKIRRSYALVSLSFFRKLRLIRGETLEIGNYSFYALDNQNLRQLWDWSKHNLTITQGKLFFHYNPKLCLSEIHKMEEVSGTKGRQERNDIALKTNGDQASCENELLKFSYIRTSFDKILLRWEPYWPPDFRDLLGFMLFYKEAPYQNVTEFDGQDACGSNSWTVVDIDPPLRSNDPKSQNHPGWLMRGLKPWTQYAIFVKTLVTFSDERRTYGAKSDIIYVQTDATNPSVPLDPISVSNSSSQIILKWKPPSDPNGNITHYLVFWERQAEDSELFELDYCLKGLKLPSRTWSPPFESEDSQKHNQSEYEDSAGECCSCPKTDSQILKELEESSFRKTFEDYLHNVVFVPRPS
# Chain of human insulin receptor, A-isoform (without exon 11) (P06213 763-1382 partner limits assumed): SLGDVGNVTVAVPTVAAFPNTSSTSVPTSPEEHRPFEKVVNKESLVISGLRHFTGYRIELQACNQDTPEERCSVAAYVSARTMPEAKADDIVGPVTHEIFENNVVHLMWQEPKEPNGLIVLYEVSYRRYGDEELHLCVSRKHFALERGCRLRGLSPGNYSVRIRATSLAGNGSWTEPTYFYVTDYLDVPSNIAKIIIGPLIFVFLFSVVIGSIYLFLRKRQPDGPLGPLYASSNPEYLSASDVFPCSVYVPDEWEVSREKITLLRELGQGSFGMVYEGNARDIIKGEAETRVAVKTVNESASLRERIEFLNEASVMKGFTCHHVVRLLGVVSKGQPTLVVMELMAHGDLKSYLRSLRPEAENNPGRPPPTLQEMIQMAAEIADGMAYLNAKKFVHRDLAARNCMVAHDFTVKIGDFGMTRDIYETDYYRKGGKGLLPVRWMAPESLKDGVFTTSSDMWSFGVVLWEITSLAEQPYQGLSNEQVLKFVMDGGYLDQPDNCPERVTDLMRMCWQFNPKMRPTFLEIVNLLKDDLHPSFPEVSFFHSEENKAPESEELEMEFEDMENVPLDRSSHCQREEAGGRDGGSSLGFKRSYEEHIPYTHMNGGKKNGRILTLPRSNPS
row,Substance,"Insulin receptor binding, A-isoform (without exon 11) Relative to human insulin"
1,"A14E, A22K(N^+mPEG2000-Propionyl), B25H, B29R, desB30 Human Insulin [Example 16]",15%
2,"A14E, A22K(N^ε(mdPEG12)3-dPEG4-yl), B25H, B29R, desB30 Human Insulin [Example 17]",19%
3,"A14E, A22K(N^ε(mdPEG12)3-dPEG4-yl-dPEG12-yl), B25H, B29R, desB30 Human Insulin [Example 18]",16%
4,"A22G, A23G, A24G, A25K(N^εmPEG750-Propionyl), B29R, desB30 Human Insulin [Example 7]",44%
5,"A22G, A23K(N^εmPEG2000-Propionyl), B29R, desB30 Human Insulin [Example 8]",58%
6,"A22K(N^ε(mdPEG12)3-dPEG4-yl), B29R, desB30 Human Insulin [Example 6]",120%
7,"A22K(N^ε(mdPEG12)3-dPEG4-yl-dPEG12-yl), B29R, desB30 Human Insulin [Example 19]",106%
8,"A22K(N^ε-mPEG2000-Propionyl), B29R, desB30 Human Insulin [Example 1]",90%
9,"A22K(N^εmPEG2000-Propionyl), B29R, desB30 Human Insulin [Example 2]",90%
10,"B29Q, B31K(N^ε(mPEG2000-Propionyl)) Human Insulin [Example 22]",14%
